In PubChem BioAssay AID1259407 (Chemical Carcinogenesis Research Information System (CCRIS), 2018):
Calls of active or inactive are those of the source. The rule behind the calls is not given here.

Test system: CCRIS mutagenicity, Ames/micronucleus/aberration tests
Experiment: CCRIS mutagenicity studies
[1] = Test System: AMES SALMONELLA TYPHIMURIUM, Strain/Indicator: TA98, Metabolic Activation: NONE, Method: PREINCUBATION
[2] = Test System: AMES SALMONELLA TYPHIMURIUM, Strain/Indicator: TA100, Metabolic Activation: NONE, Method: PREINCUBATION
[3] = Test System: AMES SALMONELLA TYPHIMURIUM, Strain/Indicator: TA1535, Metabolic Activation: NONE, Method: PREINCUBATION
[4] = Test System: AMES SALMONELLA TYPHIMURIUM, Strain/Indicator: TA100, Metabolic Activation: NONE, Method: STANDARD PLATE

Question: Which results are given for `Nc1c(Cl)cc(Cl)cc1Cl`?
Answer: mutagenic call (End Point: IN VITRO CHROMOSOMAL ABERRATIONS, Test System: CHL CELLS, Metabolic Activation: NONE): inactive; negative; mutagenic call (End Point: IN VITRO CHROMOSOMAL ABERRATIONS, Test System: CHL CELLS, Metabolic Activation: RAT, LIVER, S-9, SODIUM PHENOBARBITAL AND 5,6-BENZOFLAVONE): inactive; negative; mutagenic call (Test System: AMES SALMONELLA TYPHIMURIUM, Strain/Indicator: TA97, Metabolic Activation: HAMSTER, LIVER, S-9, AROCLOR 1254 (10%), Method: PREINCUBATION): inactive; negative; mutagenic call (Test System: AMES SALMONELLA TYPHIMURIUM, Strain/Indicator: TA97, Metabolic Activation: HAMSTER, LIVER, S-9, AROCLOR 1254 (30%), Method: PREINCUBATION): inactive; negative; mutagenic call (Test System: AMES SALMONELLA TYPHIMURIUM, Strain/Indicator: TA97, Metabolic Activation: NONE, Method: PREINCUBATION): inactive; negative; mutagenic call (Test System: AMES SALMONELLA TYPHIMURIUM, Strain/Indicator: TA97, Metabolic Activation: RAT, LIVER, S-9, AROCLOR 1254 (10%), Method: PREINCUBATION): inactive; negative; mutagenic call (Test System: AMES SALMONELLA TYPHIMURIUM, Strain/Indicator: TA97, Metabolic Activation: RAT, LIVER, S-9, AROCLOR 1254 (30%), Method: PREINCUBATION): inactive; negative; mutagenic call (Test System: AMES SALMONELLA TYPHIMURIUM, Strain/Indicator: TA98, Metabolic Activation: HAMSTER, LIVER, S-9, AROCLOR 1254 (10%), Method: PREINCUBATION): inactive; negative; mutagenic call (Test System: AMES SALMONELLA TYPHIMURIUM, Strain/Indicator: TA98, Metabolic Activation: HAMSTER, LIVER, S-9, AROCLOR 1254 (30%), Method: PREINCUBATION): inactive; negative; mutagenic call [1]: inactive; negative; mutagenic call (Test System: AMES SALMONELLA TYPHIMURIUM, Strain/Indicator: TA98, Metabolic Activation: RAT, LIVER, S-9, AROCLOR 1254 (10%), Method: PREINCUBATION): inactive; negative; mutagenic call (Test System: AMES SALMONELLA TYPHIMURIUM, Strain/Indicator: TA98, Metabolic Activation: RAT, LIVER, S-9, AROCLOR 1254 (30%), Method: PREINCUBATION): inactive; negative; mutagenic call (Test System: AMES SALMONELLA TYPHIMURIUM, Strain/Indicator: TA100, Metabolic Activation: HAMSTER, LIVER, S-9, AROCLOR 1254 (5%), Method: PREINCUBATION): inactive; negative; mutagenic call (Test System: AMES SALMONELLA TYPHIMURIUM, Strain/Indicator: TA100, Metabolic Activation: HAMSTER, LIVER, S-9, AROCLOR 1254 (10%), Method: PREINCUBATION): inactive; negative; mutagenic call (Test System: AMES SALMONELLA TYPHIMURIUM, Strain/Indicator: TA100, Metabolic Activation: HAMSTER, LIVER, S-9, AROCLOR 1254 (30%), Method: PREINCUBATION): inactive; negative; mutagenic call [2]: inactive; negative; mutagenic call (Test System: AMES SALMONELLA TYPHIMURIUM, Strain/Indicator: TA100, Metabolic Activation: RAT, LIVER, S-9, AROCLOR 1254 (5%), Method: PREINCUBATION): inactive; negative; mutagenic call (Test System: AMES SALMONELLA TYPHIMURIUM, Strain/Indicator: TA100, Metabolic Activation: RAT, LIVER, S-9, AROCLOR 1254 (10%), Method: PREINCUBATION): inactive; negative; mutagenic call (Test System: AMES SALMONELLA TYPHIMURIUM, Strain/Indicator: TA100, Metabolic Activation: RAT, LIVER, S-9, AROCLOR 1254 (30%), Method: PREINCUBATION): inactive; negative; mutagenic call (Test System: AMES SALMONELLA TYPHIMURIUM, Strain/Indicator: TA1535, Metabolic Activation: HAMSTER, LIVER, S-9, AROCLOR 1254 (10%), Method: PREINCUBATION): inactive; negative; mutagenic call (Test System: AMES SALMONELLA TYPHIMURIUM, Strain/Indicator: TA1535, Metabolic Activation: HAMSTER, LIVER, S-9, AROCLOR 1254 (30%), Method: PREINCUBATION): inactive; negative; mutagenic call [3]: inactive; negative; mutagenic call (Test System: AMES SALMONELLA TYPHIMURIUM, Strain/Indicator: TA1535, Metabolic Activation: RAT, LIVER, S-9, AROCLOR 1254 (10%), Method: PREINCUBATION): inactive; negative; mutagenic call (Test System: AMES SALMONELLA TYPHIMURIUM, Strain/Indicator: TA1535, Metabolic Activation: RAT, LIVER, S-9, AROCLOR 1254 (30%), Method: PREINCUBATION): inactive; negative; mutagenic call (Test System: UDS RODENT HEPATOCYTES, Strain/Indicator: THY INCORP (NON-S-PHASE), Metabolic Activation: NONE, Method: AUTORADIOGRAPHY): inactive; negative

Question: `O=CCC=O` was tested. Which mutagenic call (End Point: IN VITRO CHROMOSOMAL ABERRATIONS, Test System: CHO CELLS, Metabolic Activation: RAT, LIVER, S-9, AROCLOR 1254) did it give?
Answer: inactive; negative

Question: And the mutagenic call (Test System: AMES SALMONELLA TYPHIMURIUM, Strain/Indicator: HISD3052, Metabolic Activation: NONE, Method: STANDARD PLATE)?
Answer: active; positive

Question: What about the mutagenic call (Test System: AMES SALMONELLA TYPHIMURIUM, Strain/Indicator: TA94, Metabolic Activation: NONE, Method: STANDARD PLATE) of the same molecule?
Answer: inactive; negative

Question: What about the mutagenic call (Test System: AMES SALMONELLA TYPHIMURIUM, Strain/Indicator: TA98, Metabolic Activation: HAMSTER, LIVER, S-9, AROCLOR 1254, Method: PREINCUBATION) of the same molecule?
Answer: inactive; negative

Question: What about the mutagenic call [1] of the same molecule?
Answer: inactive; negative

Question: What about the mutagenic call (Test System: AMES SALMONELLA TYPHIMURIUM, Strain/Indicator: TA98, Metabolic Activation: RAT, LIVER, S-9, AROCLOR 1254, Method: PREINCUBATION) of the same molecule?
Answer: inactive; negative

Question: And the mutagenic call (Test System: AMES SALMONELLA TYPHIMURIUM, Strain/Indicator: TA100, Metabolic Activation: HAMSTER, LIVER, S-9, AROCLOR 1254, Method: PREINCUBATION)?
Answer: inactive; negative

Question: And the mutagenic call [2]?
Answer: inactive; negative

Question: And the mutagenic call (Test System: AMES SALMONELLA TYPHIMURIUM, Strain/Indicator: TA100, Metabolic Activation: RAT, LIVER, S-9, AROCLOR 1254, Method: PREINCUBATION)?
Answer: inactive; negative

Question: And the mutagenic call (Test System: AMES SALMONELLA TYPHIMURIUM, Strain/Indicator: TA102, Metabolic Activation: NONE, Method: PREINCUBATION)?
Answer: active; positive

Question: What about the mutagenic call (Test System: AMES SALMONELLA TYPHIMURIUM, Strain/Indicator: TA104, Metabolic Activation: NONE, Method: PREINCUBATION) of the same molecule?
Answer: active; positive

Question: And the mutagenic call (Test System: AMES SALMONELLA TYPHIMURIUM, Strain/Indicator: TA1535, Metabolic Activation: HAMSTER, LIVER, S-9, AROCLOR 1254, Method: PREINCUBATION)?
Answer: inactive; negative

Question: What about the mutagenic call [3] of the same molecule?
Answer: inactive; negative

Question: And the mutagenic call (Test System: AMES SALMONELLA TYPHIMURIUM, Strain/Indicator: TA1535, Metabolic Activation: RAT, LIVER, S-9, AROCLOR 1254, Method: PREINCUBATION)?
Answer: inactive; negative

Question: And the mutagenic call (Test System: AMES SALMONELLA TYPHIMURIUM, Strain/Indicator: TA1537, Metabolic Activation: HAMSTER, LIVER, S-9, AROCLOR 1254, Method: PREINCUBATION)?
Answer: inactive; negative

Question: What about the mutagenic call (Test System: AMES SALMONELLA TYPHIMURIUM, Strain/Indicator: TA1537, Metabolic Activation: NONE, Method: PREINCUBATION) of the same molecule?
Answer: inactive; negative

Question: And the mutagenic call (Test System: AMES SALMONELLA TYPHIMURIUM, Strain/Indicator: TA1537, Metabolic Activation: RAT, LIVER, S-9, AROCLOR 1254, Method: PREINCUBATION)?
Answer: inactive; negative

Question: And the mutagenic call (Test System: MOUSE LYMPHOMA, Strain/Indicator: L5178Y (TK+/TK-), Metabolic Activation: NONE, Method: SUSPENSION/PLATE)?
Answer: active; positive

Question: For `O=C(n1ccnc1)n1ccnc1`, which mutagenic call (Test System: AMES SALMONELLA TYPHIMURIUM, Strain/Indicator: TA98, Metabolic Activation: NONE, Method: STANDARD PLATE) is on record?
Answer: inactive; negative

Question: And the mutagenic call (Test System: AMES SALMONELLA TYPHIMURIUM, Strain/Indicator: TA98, Metabolic Activation: RAT, LIVER, S-9, AROCLOR 1254, Method: STANDARD PLATE)?
Answer: inactive; negative

Question: And the mutagenic call [4]?
Answer: inactive; negative

Question: What about the mutagenic call (Test System: AMES SALMONELLA TYPHIMURIUM, Strain/Indicator: TA100, Metabolic Activation: RAT, LIVER, S-9, AROCLOR 1254, Method: STANDARD PLATE) of the same molecule?
Answer: inactive; negative

Question: And the mutagenic call (Test System: AMES SALMONELLA TYPHIMURIUM, Strain/Indicator: TA1535, Metabolic Activation: NONE, Method: STANDARD PLATE)?
Answer: inactive; negative

Question: What about the mutagenic call (Test System: AMES SALMONELLA TYPHIMURIUM, Strain/Indicator: TA1535, Metabolic Activation: RAT, LIVER, S-9, AROCLOR 1254, Method: STANDARD PLATE) of the same molecule?
Answer: inactive; negative

Question: What about the mutagenic call (Test System: AMES SALMONELLA TYPHIMURIUM, Strain/Indicator: TA1537, Metabolic Activation: NONE, Method: STANDARD PLATE) of the same molecule?
Answer: inactive; negative

Question: What about the mutagenic call (Test System: AMES SALMONELLA TYPHIMURIUM, Strain/Indicator: TA1537, Metabolic Activation: RAT, LIVER, S-9, AROCLOR 1254, Method: STANDARD PLATE) of the same molecule?
Answer: inactive; negative

Question: With `CC(C)(C)c1ccc(C(=O)ON(OCc2ccccc2)C(=O)c2ccccc2)cc1` as the molecule, how does the mutagenic call [4] read?
Answer: active; positive
